Laboratory results as given in patent US8623877B2, “Substituted N-heteroaryl tetrahydro-isoquinoline derivatives, preparation and therapeutic use thereof” (Sanofi, priority 2010, dated 2014).
Where two headings read alike, the source gives them in different places.

Legend:
rhesus H3 [1] = biological target: T1, rhesus H3 (Macaca mulatta, UniProt Q865E1); test: Rhesus H3 [3H]-Methylhistamine radioligand binding assay (SPA, cell membranes); set-up: species or system rhesus monkey (Macacca Mulatta); settings: [3H]-Methylhistamine 2 nM, Cheng-Prusoff
T1 construct: 445 amino acid H3 receptor; expressed in transfected cells; host or cells: Flp-In T-REx 293 Cell Line (Invitrogen), pcDNA5/FRT/TO, induced with tetracycline
Method: (§1) Rhesus H3 membranes were prepared from the Flp-In T-REx 293 Cell Line (Invitrogen) stably transfected with pcDNA5/FRT/TO (Invitrogen) containing the rhesus monkey (Macacca Mulatta) 445 amino acid H3 receptor. (Genbank #AY231164). Stably transfected cultures were amplified in tissue culture flasks by standard tissue culture methods and induced to express rhesus H3 by exposure to 500 ng/ml tetracycline (Cellgro) for 24 hours. After induction, cells were dissociated from flasks utilizing Cell Stripper (Cellgro). Cells were centrifuged (1 K×g, 5 min) and pellet frozen in an ethanol-dry ice bath to disrupt cell membranes. Frozen cell pellet was re-suspended in 5 mM HEPES (pH 7.4, Invitrogen) at 10 ml/1000 cm2 of harvested cells. The cell suspension was drawn through an 18 gauge needle (2-3×) followed by a 23 gauge needle (2-3×) to further disrupt cell membranes. The cell suspension was centrifuged (40K×g, 30 min). Cell membrane pellet was re-suspended in 5 mM HEPES (pH 7.4, Invitrogen) at a final protein concentration of 10 mg/ml. Rhesus H3 membranes were stored under liquid nitrogen prior to use in [3H]-Methylhistamine and GTPγS radioligand binding assays.
(§2) Rhesus H3 radioligand binding assay was performed using rhesus H3 receptor membranes (prepared as described above), [3H]-Methylhistamine (Perkin Elmer) and WGA SPA beads (wheat germ agglutinin scintillation proximity assay) beads (Amersham). The assay was performed in 96-well Opti-Plates (Packard). Each reaction contained 50 μl rhesus H3 membranes (20-30 μg total protein), 50 μl WGA SPA beads (0.1 μg) and 50 μl of 83 Ci/mmol [^3H]-Methylhistamine (final concentration 2 nM) and 50 μl of tested compound. The compounds of this invention and/or vehicle were diluted with binding buffer from 10 mM DMSO stocks. Assay plates were sealed with TopSeal (Perkin Elmer) and mixed on shaker (25° C., 1 hour). Assay plates were read on TopCount scintillation counter (Packard). Results were analyzed by Hill transformation and Ki values were determined by Cheng-Prusoff equation. Similar procedure was employed to determine the binding data for rat.

Rat H3 = Rat H3 (Rattus norvegicus, UniProt Q9QYN8); test: Rat H3 radioligand binding assay (similar procedure)
Method: as §2

rhesus H3 [2] = biological target: T1, rhesus H3; test: GTPγS radioligand binding assay, inhibition of rhesus H3 constitutive functional activity in cell membranes; type: biochemical, rhesus monkey (Macacca Mulatta); settings: basal rhesus H3-mediated GTPγS binding
Method: as §1

[3] = rat H3, similar procedure to the rhesus binding assay, read-out: Rat H3 Binding ki

Rat H3, sequence (Q9QYN8 whole entry): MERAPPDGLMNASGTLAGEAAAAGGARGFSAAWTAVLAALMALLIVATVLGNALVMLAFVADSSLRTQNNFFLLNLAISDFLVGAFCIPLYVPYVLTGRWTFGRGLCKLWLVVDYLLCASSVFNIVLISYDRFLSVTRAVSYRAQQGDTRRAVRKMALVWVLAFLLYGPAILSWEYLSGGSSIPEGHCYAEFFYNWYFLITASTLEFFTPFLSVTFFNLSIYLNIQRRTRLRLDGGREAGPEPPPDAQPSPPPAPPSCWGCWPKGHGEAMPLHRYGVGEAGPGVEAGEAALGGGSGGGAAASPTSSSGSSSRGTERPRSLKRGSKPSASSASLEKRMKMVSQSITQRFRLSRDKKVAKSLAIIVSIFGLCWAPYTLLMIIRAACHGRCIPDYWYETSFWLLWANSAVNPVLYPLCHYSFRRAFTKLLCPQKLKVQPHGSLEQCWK
T1 sequence (Q865E1 1-445): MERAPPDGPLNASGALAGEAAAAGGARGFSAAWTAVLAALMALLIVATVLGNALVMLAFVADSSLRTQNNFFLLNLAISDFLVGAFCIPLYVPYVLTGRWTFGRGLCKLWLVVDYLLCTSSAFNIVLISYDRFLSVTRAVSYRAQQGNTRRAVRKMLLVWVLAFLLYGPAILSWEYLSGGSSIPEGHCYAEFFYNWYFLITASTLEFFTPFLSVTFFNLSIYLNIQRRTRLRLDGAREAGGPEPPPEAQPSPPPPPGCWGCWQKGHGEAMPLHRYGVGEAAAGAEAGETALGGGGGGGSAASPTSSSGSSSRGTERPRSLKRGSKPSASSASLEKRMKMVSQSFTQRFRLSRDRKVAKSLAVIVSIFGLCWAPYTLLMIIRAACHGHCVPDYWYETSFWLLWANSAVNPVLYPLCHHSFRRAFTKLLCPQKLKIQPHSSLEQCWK

Structure (SMILES) | Ki (rhesus H3 [1]) [nM] | Ki (Rat H3; [3]) [nM] | GTPγS-35 ASSAY % Inverse Agonism (rhesus H3 [2]) [%] | Ki (Rat H3) [nM]
Cc1ccnc(N2CCc3cc(N4CC[C@H](N5CCC[C@@H]5C)C4)ccc3C2)c1 [Example 13, 6-((2S,3′S)-2-Methyl-[1,3′]bipyrrolidinyl-1′-yl)-2-(4-methyl-pyridin-2-yl)-1,2,3,4-tetrahydro-isoquinoline] | 0.58 | 1.7 | −27.3 | –
Cc1ccc(S(=O)(=O)N2CCc3cc(N4CCc5cc(N6CC[C@H](N7CCC[C@@H]7C)C6)ccc5C4)ccc3C2)cc1 [Example 9, 6-((2S,3′S)-2-Methyl-[1,3′]bipyrrolidinyl-1′-yl)-2′-(toluene-4-sulfonyl)-3,4,1′,2′,3′,4′-hexahydro-1H-[2,6′]biisoquinolinyl] | 180 | 380 | −13.0 | –
CNC(=O)c1ccc(N2CCc3cc(N4CC[C@H](N5CCC[C@@H]5C)C4)ccc3C2)nc1 [Example 1, N-Methyl-6-[6-((2S,3′S)-2-methyl-[1,3′]bipyrrolidinyl-1′-yl)-3,4-dihydro-1H-isoquinolin-2-yl]-nicotinamide] | 0.39 | 0.95 | – | –
C[C@H]1CCCN1[C@H]1CCN(c2ccc3c(c2)CCN(c2ccc(C(F)(F)F)cn2)C3)C1 [Example 2, 6-((2S,3′S)-2-Methyl-[1,3′]bipyrrolidinyl-1′-yl)-2-(5-trifluoromethyl-pyridin-2-yl)-1,2,3,4-tetrahydro-isoquinoline] | 29 | 56 | −37.4 | –
Cc1cc(C(F)(F)F)cc(N2CCc3cc(N4CC[C@H](N5CCC[C@@H]5C)C4)ccc3C2)n1 [Example 11, 6-((2S,3′S)-2-Methyl-[1,3′]bipyrrolidinyl-1′-yl)-2-(6-methyl-4-trifluoromethyl-pyridin-2-yl)-1,2,3,4-tetrahydro-isoquinoline] | 15 | 50 | −20.9 | –
C[C@H]1CCCN1[C@H]1CCN(c2ccc3c(c2)CCN(c2cncnc2)C3)C1 [Example 6, 6-((2S,3′S)-2-Methyl-[1,3′]bipyrrolidinyl-1′-yl)-2-pyrimidin-5-yl-1,2,3,4-tetrahydro-isoquinoline] | 0.98 | 1.5 | −48.7 | –
C[C@H]1CCCN1[C@H]1CCN(c2ccc3c(c2)CCNCC3)C1 [Example 17, 7-((2S,3′S)-2-Methyl-1,3′-bipyrrolidinyl-1′-yl)-2,3,4,5-tetrahydro-1H-3-benzazepine] | 1.2 | – | −14.7 | 5.9
C[C@H]1CCCN1[C@H]1CCN(c2ccc3c(c2)CCN(c2ccc(C(F)(F)F)cn2)CC3)C1 [Example 19, 7-((2S,3′S)-2-Methyl-[1,3′]bipyrrolidinyl-1′-yl)-3-(5-trifluoromethyl-pyridin-2-yl)-2,3,4,5-tetrahydro-1H-benzo[d]azepine] | 25 | 0.93 | −8.9 | –
C[C@H]1CCCN1[C@H]1CCN(c2ccc3c(c2)CCN(c2nc4ccccc4o2)C3)C1 [Example 8, 2-Benzooxazol-2-yl-6-((2S,3′S)-2-methyl-[1,3′]bipyrrolidinyl-1′-yl)-1,2,3,4-tetrahydro-isoquinoline] | 680 | 1200 | −29.4 | –
C[C@H]1CCCN1[C@H]1CCN(c2ccc3c(c2)CCN(c2cnc4ccccc4c2)CC3)C1 [Example 18, 7-((2S,3′S)-2-Methyl-[1,3′]bipyrrolidinyl-1′-yl)-3-quinolin-3-yl-2,3,4,5-tetrahydro-1H-benzo[d]azepine] | 26 | 1.2 | −8.2 | –
C[C@H]1CCCN1[C@H]1CCN(c2ccc3c(c2)CCN(c2cnc(Br)nc2)C3)C1 [Example 5, 2-(2-Bromo-pyrimidin-5-yl)-6-((2S,3′S)-2-methyl-[1,3′]bipyrrolidinyl-1′-yl)-1,2,3,4-tetrahydro-isoquinoline] | 24 | 92 | −36.4 | –
C[C@H]1CCCN1[C@H]1CCN(c2ccc3c(c2)CCN(c2cnc4ccccc4c2)C3)C1 [Example 7, 3-[6-((2S,3′S)-2-Methyl-[1,3′]bipyrrolidinyl-1′-yl)-3,4-dihydro-1H-isoquinolin-2-yl]-quinoline] | 0.28 | 26 | −32.5 | –
COc1cncc(N2CCc3cc(N4CC[C@H](N5CCC[C@@H]5C)C4)ccc3C2)c1 [Example 10, 2-(5-Methoxy-pyridin-3-yl)-6-((2S,3′S)-2-methyl-[1,3′]bipyrrolidinyl-1′-yl)-1,2,3,4-tetrahydro-isoquinoline] | 0.24 | 0.5 | −16.7 | –
CNC(=O)c1ccc(N2CCc3ccc(N4CC[C@H](N5CCC[C@@H]5C)C4)cc3CC2)nc1 [Example 20, N-Methyl-6-[7-((2S,3′S)-2-methyl-[1,3′]bipyrrolidinyl-1′-yl)-1,2,4,5-tetrahydro-benzo[d]azepin-3-yl]-nicotinamide] | 10 | 0.27 | −8.4 | –
C[C@H]1CCCN1[C@H]1CCN(c2ccc3c(c2)CCN(c2cccc(N4CCCC4)n2)C3)C1 [Example 15, 6-((2S,3′S)-2-Methyl-[1,3′]bipyrrolidinyl-1′-yl)-2-(6-pyrrolidin-1-yl-pyridin-2-yl)-1,2,3,4-tetrahydro-isoquinoline] | 4.8 | 22 | −13.8 | –
C[C@H]1CCCN1[C@H]1CCN(c2ccc3c(c2)CCN(c2ccc(F)cn2)C3)C1 [Example 12, 2-(5-Fluoro-pyridin-2-yl)-6-((2S,3′S)-2-methyl-[1,3′]bipyrrolidinyl-1′-yl)-1,2,3,4-tetrahydro-isoquinoline] | 1.3 | 6.1 | −23.3 | –
Cc1cccc(N2CCc3cc(N4CC[C@H](N5CCC[C@@H]5C)C4)ccc3C2)n1 [Example 4, 6-((2S,3′S)-2-Methyl-[1,3′]bipyrrolidinyl-1′-yl)-2-(6-methyl-pyridin-2-yl)-1,2,3,4-tetrahydro-isoquinoline] | 0.48 | 0.4 | −46.7 | –
C[C@H]1CCCN1[C@H]1CCN(c2ccc3c(c2)CCN(c2ccc(Cl)cn2)C3)C1 [Example 16, 2-(5-Chloro-pyridin-2-yl)-6-((2S,3′S)-2-methyl-[1,3′]bipyrrolidinyl-1′-yl)-1,2,3,4-tetrahydro-isoquinoline] | 4.6 | 27 | −21.9 | –
C[C@H]1CCCN1[C@H]1CCN(c2ccc3c(c2)CCN(c2ncc(C(F)(F)F)cc2Cl)C3)C1 [Example 14, 2-(3-Chloro-5-trifluoromethyl-pyridin-2-yl)-6-((2S,3′S)-2-methyl-[1,3′]bipyrrolidinyl-1′-yl)-1,2,3,4-tetrahydro-isoquinoline] | 35 | 310 | −18.3 | –
C[C@H]1CCCN1[C@H]1CCN(c2ccc3c(c2)CCN(c2cccnc2Cl)C3)C1 [Example 3, 2-(2-Chloro-pyridin-3-yl)-6-((2S,3′S)-2-methyl-[1,3′]bipyrrolidinyl-1′-yl)-1,2,3,4-tetrahydro-isoquinoline] | 2.2 | 6.1 | −14.7 | –
